Results on two substances are retold here after BindingDB's records for doi:10.1074/jbc.M113.528695 (St. Paul's Hospital's Centre of Heart and Lung …, 2014).

The target of the assay is T1, Nitric oxide synthase, endothelial (Bos taurus, UniProt P29473).
T1 sequence (P29473 whole entry): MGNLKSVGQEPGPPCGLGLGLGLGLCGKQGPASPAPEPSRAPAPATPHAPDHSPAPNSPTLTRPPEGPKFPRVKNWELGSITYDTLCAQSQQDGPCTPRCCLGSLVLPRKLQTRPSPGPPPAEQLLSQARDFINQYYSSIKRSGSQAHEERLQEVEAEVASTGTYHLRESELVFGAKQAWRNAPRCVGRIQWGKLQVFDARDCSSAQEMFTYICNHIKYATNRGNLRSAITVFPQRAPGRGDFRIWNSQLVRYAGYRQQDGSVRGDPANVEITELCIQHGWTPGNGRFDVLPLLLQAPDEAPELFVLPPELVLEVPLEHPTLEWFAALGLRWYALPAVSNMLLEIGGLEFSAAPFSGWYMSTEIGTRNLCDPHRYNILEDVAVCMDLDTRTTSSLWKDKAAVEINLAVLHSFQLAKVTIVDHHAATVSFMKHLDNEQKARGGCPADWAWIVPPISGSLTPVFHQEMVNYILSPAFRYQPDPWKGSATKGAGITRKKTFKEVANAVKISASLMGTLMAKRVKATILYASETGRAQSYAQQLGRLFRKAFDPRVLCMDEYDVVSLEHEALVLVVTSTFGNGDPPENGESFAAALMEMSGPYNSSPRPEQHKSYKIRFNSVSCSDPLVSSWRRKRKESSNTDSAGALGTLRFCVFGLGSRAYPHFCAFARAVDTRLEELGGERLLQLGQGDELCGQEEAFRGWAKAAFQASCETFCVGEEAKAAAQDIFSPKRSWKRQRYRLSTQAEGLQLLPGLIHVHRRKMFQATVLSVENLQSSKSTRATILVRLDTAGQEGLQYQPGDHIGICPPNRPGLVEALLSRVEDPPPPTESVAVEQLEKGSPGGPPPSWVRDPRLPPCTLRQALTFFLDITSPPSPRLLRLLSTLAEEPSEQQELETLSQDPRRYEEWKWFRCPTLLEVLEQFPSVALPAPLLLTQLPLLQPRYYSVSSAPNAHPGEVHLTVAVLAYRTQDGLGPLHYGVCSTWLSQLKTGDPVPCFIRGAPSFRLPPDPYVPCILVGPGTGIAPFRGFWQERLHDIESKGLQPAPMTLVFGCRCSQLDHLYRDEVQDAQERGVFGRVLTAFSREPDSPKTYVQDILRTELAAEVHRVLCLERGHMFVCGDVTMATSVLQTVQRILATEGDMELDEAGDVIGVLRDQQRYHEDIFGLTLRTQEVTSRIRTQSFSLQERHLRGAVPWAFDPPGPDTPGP
The assay can be described thus: Polarization Assay. The note with it: pH 7.5; 25 °C. As for the experimental part: eNOS was diluted to varying concentrations in buffer containing 50 mM inorganic phosphate, 50 mM KCl, and 5 mM DTT, pH 7.5. A spectrophotometer was used to determine the concentration of the fluorescein-labeled peptide using the extinction coefficient for fluorescein (ε492 nm = 79,000 M^-1). Peptides (100 nM) were added to samples containing varying concentrations of eNOS and incubated for 1 h at room temperature. Samples were then plated on 384-well Grenier Bio-One solid black microplates in triplicate. Polarization was measured with a Tecan Infinite M1000 Pro apparatus in fluorescent polarization mode using 470-nm excitation and 515-nm emission filters.

By Kd is commonly meant the free concentration of one partner at which half of the binding sites on the other are occupied at equilibrium, for simple one-to-one binding. A high value points to lower affinity. H-TTATVTKYWF-OH [TTATVTKYWF] showed a Kd of 23 nM.

Turning to H-TTFTVTKYWF-OH [TTFTVTKYWF], the Kd was found to be 42 nM.
